12 compounds from patent EP4775208A1, “USE OF PRMT5 INHIBITOR IN TREATMENT OF TUMORS OR CANCERS” (Apeiron Therapeutics (Hong Kong) Ltd., priority 2023, dated 2025) can be followed below.

Where only a bound is given, the exact number is not on record here.

The subject of assay [1] is HCT-116 MTAP(-/-) deficient cells. In words: Inhibition of proliferation of HCT-116 MTAP(-/-) deficient cells (Cell-Titer Glo). The class given is cell-based. To be noted: 8 days. In a few lines:
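Cells in log-phase growth, RPMI-1640 with 10% FBS, seeded and left overnight at 37°C, 5% CO2. Compound tested at 0–10,000 nM (10 points, 3-fold, 0.1% DMSO) for 8 days at 37°C, 5% CO2. Viability read by CellTiter-Glo luminescence.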

Assay [2] relates to HCT-116 MTAP wild-type cells. In words: Inhibition of proliferation of HCT-116 MTAP wild-type cells (Cell-Titer Glo). The class given is cell-based. The settings on record: 8 days. In a few lines:
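MTAP wild-type HCT-116 cells were seeded, cultured overnight and then exposed to compound from 10,000 nM down in a 10-point, 3-fold series (0.1% DMSO). Plates were incubated 8 days at 37°C, 5% CO2. Proliferation was read by Cell-Titer Glo viability luminescence.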

As for `Cc1ncn2c1c(N)nc1ccc(C(=O)N(C3CC3)[C@H]3COc4cc(C(F)(F)F)ccc43)cc12` (single isomer, unassigned) [Example 85], the IC50 in assay [1] (Homo sapiens, HCT-116, 192 h) turned out to be 791 nM; in assay [2] (Homo sapiens, HCT-116, 192 h) it was 781 nM.

In the case of `CN(C(=O)c1ccc2nc(N)c3c(C#N)ncn3c2c1)[C@@H]1COc2cc(C(F)(F)F)ccc21` [Example 131, (S)-4-amino-3-cyano-N-methyl-N-(6-(trifluoromethyl)-2,3-dihydrobenzofuran-3-yl)imidazo[1,5-a]quinoxaline-8-carboxamide], the IC50 in assay [1] (Homo sapiens, HCT-116, 192 h) was greater than 3000 nM; in assay [2] (Homo sapiens, HCT-116, 192 h), greater than 10000 nM.

In the case of `N#Cc1ccc2c(c1)OCC2N(C(=O)c1ccc2nc(N)c3cncn3c2c1)C1CC1` (stereo not drawn) [Example 65, 4-amino-N-(6-cyano-2,3-dihydrobenzofuran-3-yl)-N-cyclopropyl imidazo[1,5-a]quinox aline-8-carboxamide], the concentration for half-maximal inhibition (IC50) in assay [1] (Homo sapiens, HCT-116, 192 h) turned out to be 95.3 nM; in assay [2] (Homo sapiens, HCT-116, 192 h) it was 5950 nM.

As to `CN(C(=O)c1cc2c(cc1F)nc(N)c1cncn12)[C@@H]1CCOc2cc(-c3cnn(C)c3)ccc21` [Example 114, (R)-4-amino-7-fluoro-N-methyl-N-(7-(1-methyl-1H-pyrazol-4-yl)chroman-4-yl)imidazo [1,5-a]quinoxaline-8-c arboxamide], the IC50 in assay [1] (Homo sapiens, HCT-116, 192 h) was 146 nM; in assay [2] (Homo sapiens, HCT-116, 192 h), greater than 10000 nM.

Consider “4-amino-N-methyl-N-((1S,4S)-1-methyl-7-( trifluoromethyl)isochr oman-4-yl)imidazo[1, 5-a]quinoxaline-8-car boxamide [Example 105]”, for which the results for the IC50 in assay [1] and in assay [2] were 66.1 nM and 2190 nM, respectively.

With `CN(C(=O)c1ccc2nc(N)c3cncn3c2c1)[C@@H]1COc2cc(C(F)F)ccc21` [Example 112, (S)-4-amino-N-(6-(difluoromethyl)-2,3-dihydrobenzofuran-3-yl)-N-methylimidazo[1,5-a]quinoxaline-8-carboxamide], the IC50 in assay [1] (Homo sapiens, HCT-116, 192 h) was 338 nM; in assay [2] (Homo sapiens, HCT-116, 192 h), greater than 10000 nM.

Consider `CN(C(=O)c1ccc2nc(N)c3cncn3c2c1)[C@@H]1COc2cc(N)ccc21` [Example 54, (S)-4-amino-N-(6-amino-2,3-dihydrobenzof uran-3-yl)-N-methyli midazo[1,5-a]quinoxa line-8-carboxamide], for which the half-inhibitory concentration (IC50) in assay [1] (Homo sapiens, HCT-116, 192 h) is 2500 nM; in assay [2] (Homo sapiens, HCT-116, 192 h) it was greater than 10000 nM.

As for `CN(C(=O)c1ccc2nc(N)c3cncn3c2c1)[C@H]1COCc2ccc(C(F)(F)F)cc21` (single isomer, unassigned) [Example 93], the IC50 was greater than 3000 nM in assay [1] (Homo sapiens, HCT-116, 192 h) and greater than 10000 nM in assay [2] (Homo sapiens, HCT-116, 192 h).

Consider `CN(C(=O)c1ccc2nc(N)c3c(CO)ncn3c2c1)[C@@H]1COc2cc(C(F)(F)F)ccc21` [Example 128, (S)-4-amino-3-(hydroxymethyl)-N-methyl-N-(6-(trifluoromethyl)-2,3-dihydrobenzofuran-3-yl)imidazo[1,5-a]quinoxaline-8-carboxamide], for which the IC50 in assay [1] (Homo sapiens, HCT-116, 192 h) is 26 nM; in assay [2] (Homo sapiens, HCT-116, 192 h), greater than 10000 nM.

Regarding `Nc1nc2cnc(C(=O)N(C3CC3)C3COc4cc(C(F)(F)F)ccc43)cc2n2cncc12` (stereo not drawn) [Example 67, 4-amino-N-cyclopropyl-N-(6-(trifluoromethyl)-2,3-dihydrobenzof uran-3-yl)imidazo[1,5-a]pyrido[3,4-e]pyrazine-8-carboxamide], the IC50 worked out at 35.6 nM in assay [1] (Homo sapiens, HCT-116, 192 h) and 3640 nM in assay [2] (Homo sapiens, HCT-116, 192 h).

In the case of “(R)-4-amino-N-cyclo propyl-N-(6-(trifluoro methyl)-2,3-dihydrob enzofuran-3-yl)imidaz o[1,5-a]pyrido[3,4-e]p yrazine-8-carboxamid e [Example 87]”, the concentration for half-maximal inhibition (IC50) in assay [1] is 9030 nM; in assay [2] it was 10800 nM.

In the case of “(R)-4-amino-7-fluoro-N-methyl-N-(7-(1-(tri fluoromethyl)-1H-pyr azol-4-yl)chroman-4-ylimidazo[1,5-a]quin oxaline-8-carboxamid e [Example 113]”, the IC50 in assay [1] is 88.1 nM; in assay [2] it was greater than 10000 nM.

In general, IC50 refers to the concentration that gives 50% inhibition. Low values mean greater potency in that assay, high ones weaker potency in that assay.
